The text below walks through data of patent US20220313724A1, “COMPOSITIONS FOR INTRATUMORAL ADMINISTRATION AND RELATED METHODS” (HIGHLIGHT THERAPEUTICS, S.L., priority 2021, published 2022).

The subject of one assay is MC38 or B16.OVA cells. In words: Single-agent repeated intratumoral injections in mice bearing bilateral tumors. The format is in vivo, mouse. To be noted: injected tumor.
The subject of assay [1] is circulating cytokines or chemokines. In words: Circulating cytokines or chemokines after intratumoral treatment. To be noted: systemic. It is filed as in vivo, mouse.

Source text for MC38 or B16.OVA cells: Mouse tumor models. […] Female mice were used at 8-12 weeks of age and housed under specific pathogen-free conditions. The abscopal effect was studied by injecting 4×10^5 MC38 or B16.OVA cells subcutaneously (s.c.) into the right flank of C57BL/6 mice, whereas the left flank received an injection (s.c.) of 2×10^5 (MC38) or 1.25×10^5 (B16.OVA) cancer cells. When right tumors reached a tumor volume of 80-100 mm^3 (approximately one week after tumor inoculation), mice were randomized into different treatment groups.
Evaluation of compounds. […] Control mice received intratumoral injections of PBS containing 5% glucose and/or 5% DMSO (vehicle) as indicated. Treated and untreated tumors were measured twice a week with calipers and the volume was calculated (length×width^2/2). […] When right and left tumors reached a diameter of 80-100 mm, mice were randomized to three groups. […] The control, untreated third-party tumor was untreated in all groups.

On to `Cc1ccc2c(=O)c3cccc(CC(=O)O)c3oc2c1C` [DMXAA, 5,6-dimethylxanthenone-4-acetic acid], for which the “response of directly injected tumors to the treatment” value in the assay with MC38 or B16.OVA cells is on record as “remarkably responded”. Further, the “circulating type I Interferons, IL-12, IL-18, TNFalpha (TNFα) and CXCL10” value in assay [1] is “either did not cause systemic circulating elevations or only enhanced those observed upon treatment with BO-112”.
